Series [1] is described as follows: Particle size distribution of recrystallised fluticasone propionate by laser diffraction (Malvern Mastersizer 2000). Type of series: physicochemical. To be noted: for D[v, 0.1]: 10th percentile volume diameter; for D[v, 0.1] / D[v, 0.5] / D[v, 0.9]: recrystallised batch, before micronisation; for D[v, 0.5]: 50th percentile (median) volume diameter; for D[v, 0.9]: 90th percentile volume diameter; for Ingoing particle size D[v, 0.5]: before micronisation (Table 3). As to the method: The particle size distribution was measured on the Malvern Mastersizer 2000 laser diffraction system equipped with a Hydro 2000S liquid dispersion unit and flow cell. The sample was prepared by adding 15 drops of Tween 80 to crystallised fluticasone propionate within the glass 4 dram vial and mixing into a paste using a spatula, until all of the powder is wetted out and a smooth, uniform paste is achieved. Then the paste is added to the Hydro 2000S containing dispersant (0.1% Tween 80 in deionised water) using a spatula. When the obscuration target is achieved (20%±5%) the sample is left to stir within the Hydro 2000S for 1 minute to allow the particles to wet out, disperse and ensure a stable obscuration is achieved. Measurement is initiated after 1 minute of stirring.
The particle size data expressed as D[v, 0.1], D[v, 0.5] and D[v, 0.9] obtained from examples 2-9 are summarized below in Table 2. D[v, 0.1], D[v, 0.5] and D[v, 0.9] represent the 10th percentile volume diameter; 50th percentile volume diameter; and 90th percentile volume diameter respectively. In general the n^th percentile volume diameter is defined so that n % of the particles have a volume equivalent particle diameter smaller than or equal to the n^th percentile diameter. In the case of D[v, 0.5], it coincides with the median value.

A short description of series [2]: Particle size distribution of micronised fluticasone propionate by laser diffraction (Sympatec HELOS). To be noted: after jet milling, JetPharma MC150, feed 15 g/min, mill pressure 3.5 bar, venturi 5.5 bar. Type of series: physicochemical. As to the method:
The particle size distribution was measured on the Sympatec HELOS laser diffraction system (with R1 optical module giving a measuring range of 0.1/0.18-35 μm) together with SUCELL dispersing module. 100 mg of micronised sample is weighed into a 4-dram vial and 15 drops (approximately 0.5 mL) of Tween 80 is added from a 3 ml wide-tipped pipette to the powder. The mixture is then carefully stirred into a paste until all the particles are wetted out and a uniform smooth mixture is achieved. Then the paste is added to the SUCELL containing dispersant (0.025% Tween 80 in deionised water) using a spatula. Once the optical concentration target is achieved (10-15%) then a measurement is taken.
Particles were micronized using a JetPharma MC150 (6 inch spiral jet mill) using the following conditions: • Feed rate: 15 g/min • Mill pressure: 3.5 bar • Venturi Pressure: 5.5 bar • Micronisation scale: 0.5 Kg.

Turning to `CCC(=O)O[C@]1(C(=O)SCF)[C@H](C)C[C@H]2[C@@H]3C[C@H](F)C4=CC(=O)C=C[C@]4(C)[C@@]3(F)[C@@H](O)C[C@@]21C` [Example 5, S-(fluoromethyl)-6α,9-difluoro-11β-17-dihydroxy-16α-methyl-3-oxoandrosta-1,4-diene-17β-carbothioate, 17-propionate], in series [1], the “D[v, 0.1]” value was determined as 2.1 μm; the “D[v, 0.5]” value worked out at 5.9 μm; the “D[v, 0.9]” value was determined as 15.2 μm.
Consider `CCC(=O)O[C@]1(C(=O)SCF)[C@H](C)C[C@H]2[C@@H]3C[C@H](F)C4=CC(=O)C=C[C@]4(C)[C@@]3(F)[C@@H](O)C[C@@]21C` [Example 4, S-(fluoromethyl)-6α,9-difluoro-11β-17-dihydroxy-16α-methyl-3-oxoandrosta-1,4-diene-17β-carbothioate, 17-propionate], for which, in series [1], the “D[v, 0.1]” value is 15.4 μm; the “D[v, 0.5]” value is given as 55.1 μm; the “D[v, 0.9]” value is 135.9 μm.
For the compound `CCC(=O)O[C@]1(C(=O)SCF)[C@H](C)C[C@H]2[C@@H]3C[C@H](F)C4=CC(=O)C=C[C@]4(C)[C@@]3(F)[C@@H](O)C[C@@]21C` [Example 6, S-(fluoromethyl)-6α,9-difluoro-11β-17-dihydroxy-16α-methyl-3-oxoandrosta-1,4-diene-17β-carbothioate, 17-propionate], in series [1], the “D[v, 0.1]” value is listed as 2.0 μm; the “D[v, 0.5]” value stood at 5.3 μm; the “D[v, 0.9]” value is 12.4 μm.
In the case of `CCC(=O)O[C@]1(C(=O)SCF)[C@H](C)C[C@H]2[C@@H]3C[C@H](F)C4=CC(=O)C=C[C@]4(C)[C@@]3(F)[C@@H](O)C[C@@]21C` [Example 9, S-(fluoromethyl)-6α,9-difluoro-11β-17-dihydroxy-16α-methyl-3-oxoandrosta-1,4-diene-17β-carbothioate, 17-propionate], the “Post-micronisation particle size D[v, 0.5]” value in series [2] worked out at 4.0 μm. For the same compound, in series [1], the “D[v, 0.1]” value worked out at 6.2 μm; the “D[v, 0.5]” value is 22.5 μm; the “D[v, 0.9]” value was 53.4 μm; the “Ingoing particle size D[v, 0.5]” value is recorded as 22.5 μm.
`CCC(=O)O[C@]1(C(=O)SCF)[C@H](C)C[C@H]2[C@@H]3C[C@H](F)C4=CC(=O)C=C[C@]4(C)[C@@]3(F)[C@@H](O)C[C@@]21C` [Example 7, S-(fluoromethyl)-6α,9-difluoro-11β-17-dihydroxy-16α-25 methyl-3-oxoandrosta-1,4-diene-17β-carbothioate, 17-propionate]: in series [1], the “D[v, 0.1]” value turned out to be 3.4 μm; the “D[v, 0.5]” value came to 11.4 μm; the “D[v, 0.9]” value is reported as 32.1 μm.
Consider `CCC(=O)O[C@]1(C(=O)SCF)[C@H](C)C[C@H]2[C@@H]3C[C@H](F)C4=CC(=O)C=C[C@]4(C)[C@@]3(F)[C@@H](O)C[C@@]21C` [Example 2, S-(fluoromethyl)-6α,9-difluoro-11β-17-dihydroxy-16α-methyl-3-oxoandrosta-1,4-diene-17β-carbothioate, 17-propionate], for which, in series [1], the “D[v, 0.1]” value was 2.5 μm; the “D[v, 0.5]” value was 6.7 μm; the “D[v, 0.9]” value stood at 15.7 μm.
For the compound `CCC(=O)O[C@]1(C(=O)SCF)[C@H](C)C[C@H]2[C@@H]3C[C@H](F)C4=CC(=O)C=C[C@]4(C)[C@@]3(F)[C@@H](O)C[C@@]21C` [Example 3, S-(fluoromethyl)-6α,9-difluoro-11β-17-dihydroxy-16α-methyl-3-oxoandrosta-1,4-diene-17β-carbothioate, 17-propionate], in series [1], the “D[v, 0.1]” value was 2.1 μm; the “D[v, 0.5]” value was determined as 5.1 μm; the “D[v, 0.9]” value is 11.357 μm.
Consider `CCC(=O)O[C@]1(C(=O)SCF)[C@H](C)C[C@H]2[C@@H]3C[C@H](F)C4=CC(=O)C=C[C@]4(C)[C@@]3(F)[C@@H](O)C[C@@]21C` [Example 8, S-(fluoromethyl)-6α,9-difluoro-11β-17-dihydroxy-16α-methyl-3-oxoandrosta-1,4-diene-17β-carbothioate, 17-propionate], for which the “Post-micronisation particle size D[v, 0.5]” value in series [2] is given as 2.3 μm. Moreover, in series [1], the “D[v, 0.1]” value was 1.3 μm; the “D[v, 0.5]” value is 2.8 μm; the “D[v, 0.9]” value was 5.6 μm; the “Ingoing particle size D[v, 0.5]” value is recorded as 2.8 μm.

For the origin of these results see patent US10370402B2, “Process for the preparation of fluticasone propionate form 1” (Pfizer Limited, priority 2011, dated 2019).
